The values that follow come from US20060160146A1, “Method of screening compound affecting amyloid beta production” (OTSUKA PHARMACEUTICAL CO., LTD., priority 2002, published 2006).

The test system of one test is α-secretase. The test is described as follows: α-secretase cleavage product (sAPPα) in culture supernatant of COS7 cells transiently expressing mutated APP, Western blotting. Details: key to α-cleavage: ↓: indicates a reduced amount of secretase cleavage product; →: indicates an unchanged amount of each secretase cleavage product; ↑: indicates an increased amount of secretase cleavage product; 0: indicates no detection of each secretase cleavage product. Type of test: cell-based, monkey. The settings on record: for α-cleavage: amount of sAPPα versus wild-type APP, 48 hours after transfection; for amount of α-secretase cleavage product: in words, versus wild-type APP. An excerpt: (§1) BE11-hAPP695 was used as a starting material which was produced by adding a BE11 epitope tag immediately after a signal peptide of the N-terminus of a human-type APP gene (FIG. 2) and incorporating it into a vector. With respect to the amino acid at the N-treminus of the α-secretase cleavage site of APP695 (lysine at position 16 of β-amyloid) or the amino acid at the C-terminus (leucine at position 17 of β-amyloid), tryptophan was introduced into position 16 and alanine, glutamic acid, lysine, proline, glutamine, and threonine were introduced into position 17 by the site-directed mutagenesis (QuickChange, Stratagene). A construct was produced in which these mutated APPs and wild-type APPs are respectively incorporated into a pCIneo mammalian expression vector (Promega), and the construct was then transfected to a COS7 cell by a liposome method (DOTAP, Boeringer Manheim), to achieve transient expression. Forty-eight hours after transfection, the cell and culture supernatant were collected, and the expressed proteins and the processing were analyzed by 8% SDS-PAGE/Western blotting. The expression of a cell membrane-associated full-length APP confirmed using the monoclonal antibody (Mab BE11) against BE11. The expression level was standardized, and then α-secretase cleavage products (sAPPα) and β-secretase cleavage products (sAPPβ) which were secreted in the culture supernatant (medium) were detected and quantified using a specific antibody against the respective products.
On the technique in general: Immunoblotting shows a protein as a band on a membrane.

The subject of another test is β-secretase. As to the kind of experiment: β-secretase cleavage product (sAPPβ) in culture supernatant of COS7 cells transiently expressing mutated APP, Western blotting. The conditions noted are these: for β-cleavage: amount of sAPPβ versus wild-type APP, 48 hours after transfection. Details: key to β-cleavage: ↓: indicates a reduced amount of secretase cleavage product; →: indicates an unchanged amount of each secretase cleavage product; ↑: indicates an increased amount of secretase cleavage product; 0: indicates no detection of each secretase cleavage product. It is filed as cell-based, monkey.
From the text: as §1

As for “Pro (position 17): human APP695 modified protein, leucine at position 17 of β-amyloid replaced with proline”, in the test with α-secretase, the α-cleavage is 0 and the “amount of α-secretase cleavage product” value is reported as “No α-secretase cleavage product was detected”. The β-cleavage result in the test on β-secretase is reported as “→”.

As to “Lys (position 17): human APP695 modified protein, leucine at position 17 of β-amyloid replaced with lysine”, in the test on α-secretase, the α-cleavage result is reported as “↓↓” and the “amount of α-secretase cleavage product” value was “decreased”. Besides, the β-cleavage result with β-secretase was “↑”. In the test on β-secretase (in words, versus wild-type APP), the “amount of β-secretase cleavage product” value is on record as “slightly increased”.

Regarding “Ala (position 17): human APP695 modified protein, leucine at position 17 of β-amyloid replaced with alanine”, in the test with α-secretase, the α-cleavage result is listed as “↓” and the “amount of α-secretase cleavage product” value was “decreased”. Moreover, the β-cleavage result in the test on β-secretase is recorded as “→”.

For the substance “Glu (position 17): human APP695 modified protein, leucine at position 17 of β-amyloid replaced with glutamic acid”, in the test on α-secretase, the α-cleavage is 0 and the “amount of α-secretase cleavage product” value is listed as “No α-secretase cleavage product was detected”. In addition, in the test on β-secretase, the β-cleavage entry is on record as “→”.

Consider “Trp (position 16): human APP695 modified protein, lysine at position 16 of β-amyloid replaced with tryptophan”, for which, in the test with α-secretase, the α-cleavage entry is reported as “↓↓” and the “amount of α-secretase cleavage product” value is given as “sharply decreased”. Besides, the β-cleavage entry in the test on β-secretase is listed as “→”.
